Biological target: acetyl-CoA carboxylase (TbACC) (Trypanosoma brucei, UniProt Q57YR7)
Format: biochemical

Question: CC(Oc1ccc(Oc2ncc(C(F)(F)F)cc2Cl)cc1)C(=O)O (stereo not shown) [haloxyfop] was tested. Which EC50 did it give?
Answer: Its EC50 is 67 µM.

Reference: article PMC3264756 (2011)
